Laboratory results from patent publication US6706517B2, “Method for producing L-amino acids by fermentation” (priority 1999, dated 2004).
Where a name gives a salt, the structure may show the parent alone.

Columns and labels:
Type in all cases: cell-based
Conditions in all cases: 33° C., 4 days
Escherichia coli H-9342 = assay: Comparative test of growth on agar plate medium containing primaquine or novobiocin, mutant strain H-9342
Experimental: (§1) Preparation of an L-histidine-producing mutant strain having resistance to a DNA gyrase inhibitor or an L-histidine-producing mutant strain having both resistance to a DNA gyrase inhibitor and resistance to an aminoquinoline derivative The L-histidine-producing mutant strain H-9340 having resistance to 1,2,4-triazole alanine, which was derived from methionine-requiring Escherichia coli ATCC 21318 was subjected to a mutation treatment with N-methyl-N′-nitro-N-nitrosoguanidine (NTG) (0.2 mg/ml, 30° C., 30 minutes) according to a conventional method and spread on a 1 g/liter noboviocin monosodium salt-containing agar plate medium [0.2% glucose, 0.3% potassium dihydrogen phosphate, 0.6% disodium hydrogen phosphate, 0.01% magnesium sulfate, 0.05% sodium chloride, 0.1% ammonium chloride, 50 mg/liter required nutrient (DL-methionine) and 1.5% agar, pH 7.2].
The mutant strain was cultured on the agar plate medium at 30° C. for 2 to 6 days, and the growing large colonies were picked up and separated to obtain the strain H-9342.
(§2) Comparative test of growth on agar plate culture medium containing primaquine or novobiocin
(§3) The growth of the mutant strains H-9342 and H-9343 obtained in Example 1 was compared with the growth of the parent strain H-9340 on an agar plate medium containing primaquine or novobiocin.
(§4) Each of the mutant strains, which had been cultured in a natural medium for 24 hours and suspended in physiological saline, was spread at a cell density of 1 to 10 cells/cm^2 on the agar plate medium containing primaquine disodium salt or novobiocin monosodium salt at the same concentration as that at the time of acquisition of each mutant strain, and cultured at 33° C. for 4 days.

Escherichia coli H-9343 = assay: Comparative test of growth on agar plate medium containing primaquine or novobiocin, mutant strain H-9343
Experimental: Furthermore, the obtained colony was subjected to a mutation treatment with NTG (0.2 mg/ml, 30° C., 30 minutes), followed by spreading on an agar plate culture medium containing 150 mg/liter primaquine disodium salt. Culturing was carried out thereon at 30° C. for 2 to 6 days, and growing large colonies were picked up and separated to obtain the strain H-9343. The strains H-9340, H-9342 and H-9343 were deposited on March 9, 1999 with the National Institute of Bioscience and Human-Technology, Agency of Industrial Science and Technology (1-3, Higashi 1-chome, Tsukuba-shi, Ibaraki-ken, Japan) under the Budapest Treaty with accession Nos. FERM BP-6673, FERM BP-6675 and FERM BP-6676, respectively.
as §2, §3, §4

Escherichia coli H-9340 = assay: Comparative test of growth on agar plate medium containing primaquine or novobiocin, parent strain H-9340
Experimental: as §1, §2
The growth of the mutant strains H-9342 and H-9343 obtained in Example 1 was compared with the growth of the parent strain H-9340 on an agar plate medium containing primaquine or novobiocin. […]

[1] = 1 g/liter novobiocin monosodium salt in agar medium
[2] = 150 mg/liter primaquine disodium salt in agar medium

## CO[C@@H]1[C@@H](OC(N)=O)[C@@H](O)[C@H](Oc2ccc3c(O)c(NC(=O)c4ccc(O)c(CC=C(C)C)c4)c(=O)oc3c2C)OC1(C)C [Novobiocin monosodium salt, novobiocin monosodium salt]
Escherichia coli H-9342; [1]
  Growth or non-growth on agar plate medium: +
Escherichia coli H-9343; [1]
  Growth or non-growth on agar plate medium: +
Escherichia coli H-9340; [1]
  Growth or non-growth on agar plate medium: −

## COc1cc(NC(C)CCCN)c2ncccc2c1 (stereo not shown) [Primaquine disodium salt, primaquine disodium salt]
Escherichia coli H-9342; [2]
  Growth or non-growth on agar plate medium: −
Escherichia coli H-9342; primaquine-containing agar medium
  Growth on the primaquine-containing culture medium (in words): did not grow
Escherichia coli H-9343; [2]
  Growth or non-growth on agar plate medium: +
Escherichia coli H-9340; [2]
  Growth or non-growth on agar plate medium: −
